# Assay results: patent publication US20190105367A1, “ANTIMICROBIAL 4-OXOQUINOLIZINES” (Emergent Product Development Gaithersburg Inc., priority 2011, published 2019)
# Like-named read-outs stand apart in the source and are kept apart here.
# Tests used:
# [1] = system: strains of A. baumannii and one strain of Acinetobacter sp.; assay: MIC with sub-inhibitory concentrations (0.25x MIC) of polymyxin B, panel of Acinetobacter strains (Example 4); format: cell-based
# A. baumannii ATCC 19606 = assay: MIC without and with sub-inhibitory polymyxin B (Example 4); format: cell-based, Acinetobacter baumannii; conditions: for MIC without PB/MIC + PB: A. baumannii ATCC 19606; for MIC: Acinetobacter baumannii
# A. baumannii J2 [2] = assay: as above; format: cell-based, Acinetobacter baumannii; conditions: for MIC without PB/MIC + PB: A. baumannii J2; for MIC: Acinetobacter baumannii
# A. baumannii J2 [3] = assay: Preliminary MBC without and with sub-inhibitory polymyxin B (Example 4); format: cell-based, Acinetobacter baumannii; conditions: Acinetobacter baumannii, preliminary MBC
# [4] = system: Acinetobacter sp. (H064200250); assay: MIC without and with sub-inhibitory polymyxin B (Example 4); format: cell-based; conditions: for MIC: Acinetobacter
# A. baumannii A329 [5] = assay: as above; format: cell-based, Acinetobacter baumannii; conditions: +0.06 μg/ml PB, 2nd experiment
# A. baumannii A329 [6] = assay: Preliminary MBC without and with sub-inhibitory polymyxin B (Example 4); format: cell-based, Acinetobacter baumannii; conditions: Acinetobacter baumannii, A329, A. baumannii A329, +0.06 μg/ml PB, 2nd experiment, read-out: MBC
# A. baumannii A387 [7] = assay: MIC without and with sub-inhibitory polymyxin B (Example 4); format: cell-based, Acinetobacter baumannii; conditions: for MIC without PB/MIC + PB: A. baumannii A387; for MIC: Acinetobacter baumannii
# A. baumannii A387 [8] = assay: Preliminary MBC without and with sub-inhibitory polymyxin B (Example 4); format: cell-based, Acinetobacter baumannii; conditions: Acinetobacter baumannii
# A. baumannii A390 [9] = assay: MIC without and with sub-inhibitory polymyxin B (Example 4); format: cell-based, Acinetobacter baumannii; conditions: +0.06 μg/ml PB, 2nd experiment
# A. baumannii A14 [10] = assay: Preliminary MBC without and with sub-inhibitory polymyxin B (Example 4); format: cell-based, Acinetobacter baumannii; conditions: 2nd experiment
# Outline: (§1)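 Incubation 18-20 h, 37° C. MBC = lowest conc. with ~90% fewer colonies than positive control (single/no colonies).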
# A. baumannii A390 [11] = assay: as above; format: cell-based, Acinetobacter baumannii; conditions: Acinetobacter baumannii, A390, A. baumannii A390, +0.06 μg/ml PB, 2nd experiment, read-out: MBC
# Outline: as §1
# A. baumannii A473 [12] = assay: as above; format: cell-based, Acinetobacter baumannii; conditions: Acinetobacter baumannii, A473, A. baumannii A473, +0.06 μg/ml PB, 2nd experiment, read-out: MBC
# Outline: as §1
# A. baumannii NCTC 13301 [13] = assay: as above; format: cell-based, Acinetobacter baumannii; conditions: Acinetobacter baumannii
# Outline: as §1
# A. baumannii A401 [14] = assay: MIC without and with sub-inhibitory polymyxin B (Example 4); format: cell-based, Acinetobacter baumannii
# A. baumannii A401 [15] = assay: Preliminary MBC without and with sub-inhibitory polymyxin B (Example 4); format: cell-based, Acinetobacter baumannii; conditions: Acinetobacter baumannii
# A. baumannii A472 [16] = assay: MIC without and with sub-inhibitory polymyxin B (Example 4); format: cell-based, Acinetobacter baumannii; conditions: for MIC: Acinetobacter baumannii
# A. baumannii A472 [17] = assay: Preliminary MBC without and with sub-inhibitory polymyxin B (Example 4); format: cell-based, Acinetobacter baumannii; conditions: Acinetobacter baumannii, preliminary MBC
# A. baumannii A473 [18] = assay: MIC without and with sub-inhibitory polymyxin B (Example 4); format: cell-based, Acinetobacter baumannii; conditions: +0.06 μg/ml PB, 2nd experiment
# A. baumannii A489 = assay: as above; format: cell-based, Acinetobacter baumannii; conditions: for MIC without PB/MIC + PB: A. baumannii A489; for MIC: Acinetobacter baumannii
# A. baumannii NCTC 13301 [19] = assay: as above; format: cell-based, Acinetobacter baumannii
# A. baumannii NCTC 13301 [20] = assay: as above; format: cell-based, Acinetobacter baumannii; conditions: +[…] PB, 2nd experiment
# A. baumannii A14 [21] = assay: as above; format: cell-based, Acinetobacter baumannii; conditions: 1st experiment
# A. baumannii A14 [22] = assay: as above; format: cell-based, Acinetobacter baumannii; conditions: 2nd experiment
# [23] = ratio, PB 0.06 μg/ml, 1st experiment
# [24] = A. baumannii A14, +0.06 μg/ml PB
smiles,measurement,setting,value
"Cc1c(-c2ccc(N)cc2)c(F)cn2c(=O)c(C(=O)O)cc(C3CC3)c12 [Compound 7, 8-(4-amino-phenyl)-1-cyclopropyl-7-fluoro-9-methyl-4-oxo-quinolizine-3-carboxylic acid]","MIC range with PB (0.25x MIC) Oct. 1, 2008 n = 8","[1]; 1st experiment, […] polymyxin B, ATCC 19606, A329, A390 and A473 not taken",≤0.03 to 1 µg/mL
same,"MIC range with PB (0.25x MIC) Oct. 14, 2008 n = 11","[1]; 2nd experiment, 0.06 μg/ml polymyxin B, all strains except the ATCC strain",≤0.03 to 2 µg/mL
same,MIC without PB/MIC + PB,"A. baumannii ATCC 19606; +0.06 μg/ml PB, 2nd experiment",≥8
same,MIC without PB/MIC + PB,A. baumannii ATCC 19606; [23],≥16
same,MIC,"A. baumannii ATCC 19606; ATCC19606, A. baumannii ATCC 19606, +0.06 μg/ml PB, 2nd experiment, read-out: MIC",≤ 0.03 µg/mL
same,MIC,"A. baumannii ATCC 19606; ATCC19606, read-out: MIC +0.06 μg/ml PB, A. baumannii ATCC 19606, +0.06 μg/ml polymyxin B, 1st experiment",≤ 0.03 µg/mL
same,MIC without PB/MIC + PB,"A. baumannii J2 [2]; +[…] PB, 2nd experiment",≥128
same,MIC without PB/MIC + PB,"A. baumannii J2 [2]; ratio, PB […], 1st experiment",≥512
same,MIC,"A. baumannii J2 [2]; J2, A. baumannii J2, +[…] PB, 2nd experiment, read-out: MIC",≤ 0.03 µg/mL
same,MIC,"A. baumannii J2 [2]; J2, read-out: MIC +[…] PB, A. baumannii J2, +[…] polymyxin B, 1st experiment",≤ 0.03 µg/mL
same,MBC,"A. baumannii J2 [3]; J2, A. baumannii J2, +[…] PB, 2nd experiment, read-out: MBC",≤ 0.03 µg/mL
same,MBC,"A. baumannii J2 [3]; J2, read-out: MBC +[…] PB, A. baumannii J2, +[…] polymyxin B, 1st experiment",≤ 0.03 µg/mL
same,MIC without PB/MIC + PB,"[4]; Acinetobacter spp. H064200250 (OXA51), +[…] PB, 2nd experiment",≥512
same,MIC without PB/MIC + PB,"[4]; Acinetobacter spp. H064200250, ratio, PB […], 1st experiment",32
same,MIC,"[4]; Acinetobacter spp. H064200250 (OXA51), +[…] PB, 2nd experiment, read-out: MIC",≤ 0.03 µg/mL
same,MIC,"[4]; read-out: MIC +[…] PB, Acinetobacter spp. H064200250, +[…] polymyxin B, 1st experiment",0.25 µg/mL
same,MIC without PB/MIC + PB,A. baumannii A329 [5]; A. baumannii A329,8
same,MIC,"A. baumannii A329 [5]; Acinetobacter baumannii, A329, A. baumannii A329, read-out: MIC",2 µg/mL
same,MBC,A. baumannii A329 [6],2 µg/mL
same,MIC without PB/MIC + PB,"A. baumannii A387 [7]; +0.06 μg/ml PB, 2nd experiment",≥64
same,MIC without PB/MIC + PB,A. baumannii A387 [7]; [23],≥64
same,MIC,"A. baumannii A387 [7]; A387, A. baumannii A387, +0.06 μg/ml PB, 2nd experiment, read-out: MIC",≤ 0.03 µg/mL
same,MIC,"A. baumannii A387 [7]; A387, read-out: MIC +0.06 μg/ml PB, A. baumannii A387, +0.06 μg/ml polymyxin B, 1st experiment",≤ 0.03 µg/mL
same,MBC,"A. baumannii A387 [8]; A387, A. baumannii A387, +0.06 μg/ml PB, 2nd experiment, read-out: MBC",≤ 0.03 µg/mL
same,MBC,"A. baumannii A387 [8]; A387, read-out: MBC +0.06 μg/ml PB, A. baumannii A387, +0.06 μg/ml polymyxin B, 1st experiment",≤ 0.03 µg/mL
same,MIC without PB/MIC + PB,A. baumannii A390 [9]; A. baumannii A390,128
same,MIC,"A. baumannii A390 [9]; Acinetobacter baumannii, A390, A. baumannii A390, read-out: MIC",0.125 µg/mL
same,MBC,A. baumannii A14 [10]; [24],2 µg/mL
same,MBC,"A. baumannii A14 [10]; Acinetobacter baumannii, A14, A. baumannii A14, without PB, read-out: MBC",16 µg/mL
same,MBC,A. baumannii A390 [11],0.125 µg/mL
same,MBC,A. baumannii A473 [12],0.06 µg/mL
same,MBC,"A. baumannii NCTC 13301 [13]; NCTC13301, A. baumannii NCTC 13301, +[…] PB, preliminary MBC, 2nd experiment, read-out: MBC",≤ 0.03 µg/mL
same,MBC,"A. baumannii NCTC 13301 [13]; NCTC13301, read-out: MBC +[…] PB",0.06 µg/mL
same,MIC +0.06 μg/ml PB,"A. baumannii A401 [14]; A baumannii A 401, +0.06 μg/ml polymyxin B, 1st experiment",0.5 µg/mL
same,MIC without PB/MIC + PB,"A. baumannii A401 [14]; A baumannii A 401, ratio, PB 0.06 μg/ml, 1st experiment",8
same,MIC,"A. baumannii A401 [14]; Acinetobacter baumannii, A401, A baumannii A 401, +0.06 μg/ml PB, 2nd experiment, read-out: MIC",1 µg/mL
same,MBC,"A. baumannii A401 [15]; A401, A baumannii A 401, +0.06 μg/ml PB, 2nd experiment, read-out: MBC",0.5 µg/mL
same,MBC,"A. baumannii A401 [15]; A401, read-out: MBC +0.06 μg/ml PB, A baumannii A 401, +0.06 μg/ml polymyxin B, 1st experiment",0.5 µg/mL
same,MIC without PB/MIC + PB,"A. baumannii A472 [16]; A. baumannii A472, ratio, PB […], 1st experiment",≥128
same,MIC,"A. baumannii A472 [16]; A472, A. baumannii A472, +[…] PB, 2nd experiment, read-out: MIC",≤ 0.03 µg/mL
same,MIC,"A. baumannii A472 [16]; A472, read-out: MIC +[…] PB, A. baumannii A472, +[…] polymyxin B, 1st experiment",≤ 0.03 µg/mL
same,MBC,"A. baumannii A472 [17]; A472, A. baumannii A472, +[…] PB, 2nd experiment, read-out: MBC",≤ 0.03 µg/mL
same,MBC,"A. baumannii A472 [17]; A472, read-out: MBC +[…] PB, A. baumannii A472, +[…] polymyxin B, 1st experiment",≤ 0.03 µg/mL
same,MIC without PB/MIC + PB,A. baumannii A473 [18]; A. baumannii A473,64
same,MIC,"A. baumannii A473 [18]; Acinetobacter baumannii, A473, A. baumannii A473, read-out: MIC",0.06 µg/mL
same,MIC without PB/MIC + PB,"A. baumannii A489; +[…] PB, 2nd experiment",≥256
same,MIC without PB/MIC + PB,"A. baumannii A489; ratio, PB […], 1st experiment",≥256
same,MIC,"A. baumannii A489; A489, A. baumannii A489, +[…] PB, 2nd experiment, read-out: MIC",≤ 0.03 µg/mL
same,MIC,"A. baumannii A489; A489, read-out: MIC +[…] PB, A. baumannii A489, +[…] polymyxin B, 1st experiment",≤ 0.03 µg/mL
same,MIC without PB/MIC + PB,"A. baumannii NCTC 13301 [19]; A. baumannii NCTC 13301, ratio, PB […], 1st experiment",256
same,MIC,"A. baumannii NCTC 13301 [19]; Acinetobacter baumannii, NCTC13301, read-out: MIC +[…] PB",0.06 µg/mL
same,MIC without PB/MIC + PB,A. baumannii NCTC 13301 [20]; A. baumannii NCTC 13301,≥512
same,MIC,"A. baumannii NCTC 13301 [20]; Acinetobacter baumannii, NCTC13301, A. baumannii NCTC 13301, read-out: MIC",≤ 0.03 µg/mL
same,MIC +0.06 μg/ml PB,A. baumannii A14 [21]; +0.06 μg/ml polymyxin B,1 µg/mL
same,MIC without PB/MIC + PB,"A. baumannii A14 [21]; ratio, PB 0.06 μg/ml",32
same,MIC,A. baumannii A14 [22]; [24],2 µg/mL
same,MIC without PB/MIC + PB,A. baumannii A14 [22]; [24],8
same,MIC,"A. baumannii A14 [22]; Acinetobacter baumannii, A14, A. baumannii A14, without PB, read-out: MIC",16 µg/mL
